In patent publication US9480722B2, “Method of alleviating or treating periodontal disease” (priority 2012, dated 2016):

Key:
Porphyromonas gingivalis [1] = assay: Determination of minimal bactericidal concentration (MBC), plating on sBHI agar with 5% defibrinated sheep blood; assay type: cell-based
Method: Porphyromonas gingivalis was purchased from Food Industry Research and Development Institute ([…], Taiwan) with the accession number BCRC 14417. After thawing from frozen tube, Porphyromonas gingivalis was activated in the supplemented brain heart infusion broth, and cultured at 37° C. anaerobic condition (80% N2, 10% H2, 10% CO2) for 24 hours to 48 hours. […] Chlorhexidine was used as positive control. […]. After Porphyromonas gingivalis with said solution of Antrodia camphorata 95% ethanol extract or chlorhexidine were cultured at 37° C. under anaerobic condition (80% N2, 10% H2, 10% CO2) for 48 hours, 10 μl aliquot […] was added to supplemented brain heart infusion agar with 5% defibrinated sheep blood. Then, broth was gently coated uniformly onto supplemented brain heart infusion agar with 5% defibrinated sheep blood by a triangular sterilized glass rod and cultured at 37° C. anaerobic condition (80% N2, 10% H2, 10% CO2) for 5 days. […] ([…] Castro et al., 2009, Bioorganic & Medicinal Chemistry, 17:5332-5335)

Porphyromonas gingivalis [2] = assay: Determination of minimal inhibitory concentration (MIC), broth microplate, absorbance at 600 nm; assay type: cell-based; conditions: BCRC14417, P. gingivalis BCRC 14417, 24 hours anaerobic, 37° C., concentration at absorbance ≦0.5 at 600 nm
Method: Porphyromonas gingivalis was purchased from Food Industry Research and Development Institute ([…], Taiwan) with the accession number BCRC 14417. After thawing from frozen tube, Porphyromonas gingivalis was activated in the supplemented brain heart infusion broth, and cultured at 37° C. anaerobic condition (80% N2, 10% H2, 10% CO2) for 24 hours to 48 hours. […] Chlorhexidine was used as positive control. The 2.5% (v/v) dimethyl sulfoxide was used as normal control.

## [H]/N=C(\N/C(=N/[H])NCCCCCCNC(=N)NC(=N)Nc1ccc(Cl)cc1)Nc1ccc(Cl)cc1 [Chlorhexidine, Chlorhexidine digluconate]
Porphyromonas gingivalis [1]; Porphyromonas gingivalis, BCRC14417
  MBC: 4 µg/mL
Porphyromonas gingivalis [1]; concentration above 4 μg/ml, FIG. 3
  colony growth on supplemented brain heart infusion agar with 5% defibrinated sheep blood: no colony growing
Porphyromonas gingivalis [2]
  MIC: 4 µg/mL
